For five molecules, EC50 results are on record in publication PMC5972582, “Bidirectional GPR119 Agonism Requires Peptide YY and Glucose for Activity in Mouse and Human Colon Mucosa” (Endocrinology, 2018).

The assay addresses T1, GPR119 (WT mouse descending colon mucosa) (Mus musculus, UniProt Q7TQP3).
T1 construct: native full-length receptor in L-cells of intact mouse colonic mucosa (Ussing chamber); no recombinant protein
T1 sequence (Q7TQP3 1-335): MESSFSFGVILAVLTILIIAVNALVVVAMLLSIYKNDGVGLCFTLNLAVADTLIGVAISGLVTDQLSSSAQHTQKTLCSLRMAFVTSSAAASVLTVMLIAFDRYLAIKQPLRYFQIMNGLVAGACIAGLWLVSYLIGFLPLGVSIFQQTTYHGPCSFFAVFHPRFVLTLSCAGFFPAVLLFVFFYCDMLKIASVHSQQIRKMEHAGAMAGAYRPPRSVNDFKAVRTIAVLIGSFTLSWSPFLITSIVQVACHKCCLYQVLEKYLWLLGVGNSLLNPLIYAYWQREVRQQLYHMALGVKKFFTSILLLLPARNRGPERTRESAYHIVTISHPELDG
Nature of the assay: short-circuit current (Isc) in native mouse descending colon mucosa, Ussing chamber. The note with it: agonist, apical addition, indirect tissue read-out (PYY-mediated fall in Isc) after 10 nM VIP, 11.1 mM glucose. The source says:
short-circuit current (Isc) in native mouse descending colon mucosa, Ussing chamber on GPR119 (WT mouse descending colon mucosa)

pEC50: −log10 of the molar value.

On to AR440006, for which the pEC50 (usually the EC50 on a negative log10 scale, so that one unit is a factor of ten) was 6.77.

`CC(C)c1noc(C2CCN(c3ncnc(Nc4ccc(S(C)(=O)=O)cc4F)c3[N+](=O)[O-])CC2)n1` [AR231453]: the negative logarithm of the EC50 (pEC50) (partial agonist) was 8.92.

As for AR435707, the pEC50 was 7.56.

For the molecule `CCCCCCCC/C=C\CCCCCCCC(=O)NCCO` [OEA], the negative logarithm of the EC50 (pEC50) is 4.83.

For the molecule `CCCCCCCC/C=C\CCCCCCCC(=O)OC(CO)CO` [2-OG], the pEC50 was 5.31.
